Assay results reported in PubChem BioAssay AID2060912 (Molecular Pharmacology Branch, DTP, NCI, 2025).

System: HUVEC/MSC spheroids viability
Test: Human HUVEC/MSC cell line growth inhibition [KRAS2];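 as to viability, T/C: percent of DMSO vehicle control luminescence so 100% = untreated viability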
Conditions: for IC50: curve of first compound; for viability, T/C: stronger effect = lower value; active = viability on the fitted dose curve at most 10% of control; inactive = the rest
Procedure, shortened: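 Spheroids of pooled-donor HUVEC and hMSC (passage ≤5) without tumour cells were treated with KRAS-pathway inhibitors alone and combined with targeted agents. Top concentration was at or near clinical Cmax, or 10 microM when Cmax was unknown, descending in half-log steps.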

[1] = second compound 0.00949 µM, first compound 0.0316 µM
[2] = second compound 0.00949 µM, first compound 0.1 µM
[3] = second compound 0.00949 µM, first compound 0.316 µM
[4] = second compound 0.00949 µM, first compound 1 µM
[5] = second compound 0.00949 µM, first compound 3.16 µM
[6] = second compound 0.00949 µM, first compound 10 µM
[7] = second compound 0.03 µM, first compound 0.0316 µM
[8] = second compound 0.03 µM, first compound 0.1 µM
[9] = second compound 0.03 µM, first compound 0.316 µM
[10] = second compound 0.03 µM, first compound 1 µM
[11] = second compound 0.03 µM, first compound 3.16 µM
[12] = second compound 0.03 µM, first compound 10 µM
[13] = second compound 0.0949 µM, first compound 0.0316 µM
[14] = second compound 0.0949 µM, first compound 0.1 µM
[15] = second compound 0.0949 µM, first compound 0.316 µM
[16] = second compound 0.0949 µM, first compound 1 µM
[17] = second compound 0.0949 µM, first compound 3.16 µM
[18] = second compound 0.0949 µM, first compound 10 µM
[19] = second compound 0.3 µM, first compound 0.0316 µM
[20] = second compound 0.3 µM, first compound 0.1 µM
[21] = second compound 0.3 µM, first compound 0.316 µM
[22] = second compound 0.3 µM, first compound 1 µM
[23] = second compound 0.3 µM, first compound 3.16 µM
[24] = second compound 0.3 µM, first compound 10 µM
[25] = second compound 0.949 µM, first compound 0.0316 µM
[26] = second compound 0.949 µM, first compound 0.1 µM
[27] = second compound 0.949 µM, first compound 0.316 µM
[28] = second compound 0.949 µM, first compound 1 µM
[29] = second compound 0.949 µM, first compound 3.16 µM
[30] = second compound 0.949 µM, first compound 10 µM
[31] = second compound 3 µM, first compound 0.0316 µM
[32] = second compound 3 µM, first compound 0.1 µM
[33] = second compound 3 µM, first compound 0.316 µM
[34] = second compound 3 µM, first compound 1 µM
[35] = second compound 3 µM, first compound 3.16 µM
[36] = second compound 3 µM, first compound 10 µM

CC(C)NCC(C(=O)N1CCN(c2ncnc3c2C(C)CC3O)CC1)c1ccc(Cl)cc1 (stereo unspecified) + C=CC(=O)N1CCN(c2nc(OCC3CCCN3C)nc3c2CCN(c2cccc4cccc(C)c24)C3)CC1CC#N
inactive: viability, T/C [1] 102% | viability, T/C [2] 92.3% | viability, T/C [3] 98.8% | viability, T/C [4] 66.7% | viability, T/C [5] 67.7% | viability, T/C [6] 57.2% | viability, T/C [7] 85.8% | viability, T/C [8] 91.8% | viability, T/C [9] 94.8% | viability, T/C [10] 61.3% | viability, T/C [11] 65.4% | viability, T/C [12] 46.1% | viability, T/C [13] 95.4% | viability, T/C [14] 97.5% | viability, T/C [15] 78.2% | viability, T/C [16] 79.8% | viability, T/C [17] 53.4% | viability, T/C [18] 57.4% | viability, T/C [19] 77.7% | viability, T/C [20] 84.8% | viability, T/C [21] 84% | viability, T/C [22] 71.8% | viability, T/C [23] 56.4% | viability, T/C [24] 45.6% | viability, T/C [25] 67.4% | viability, T/C [26] 82.2% | viability, T/C [27] 68.6% | viability, T/C [28] 58% | viability, T/C [29] 57.8% | viability, T/C [30] 56% | viability, T/C [31] 83.4% | viability, T/C [32] 74.5% | viability, T/C [33] 81.2% | viability, T/C [34] 68.5% | viability, T/C [35] 49.3% | viability, T/C [36] 51.9%
6.17 µM: IC50 (second compound 0.3 µM)
> 10 µM: IC50 (second compound 0.00949 µM) | IC50 (second compound 0.03 µM) | IC50 (second compound 0.0949 µM) | IC50 (second compound 0.949 µM) | IC50 (second compound 3 µM)

CCN1CCN(Cc2ccc(Nc3ncc(F)c(-c4cc(F)c5nc(C)n(C(C)C)c5c4)n3)nc2)CC1 + C=CC(=O)N1CCN(c2nc(OCC3CCCN3C)nc3c2CCN(c2cccc4cccc(C)c24)C3)CC1CC#N
inactive: viability, T/C (second compound 0.00949 µM, first compound 0.00316 µM) 98.1% | viability, T/C (second compound 0.00949 µM, first compound 0.01 µM) 94.3% | viability, T/C [1] 82.5% | viability, T/C [2] 83.7% | viability, T/C [3] 98.7% | viability, T/C [4] 149% | viability, T/C (second compound 0.03 µM, first compound 0.00316 µM) 80.7% | viability, T/C (second compound 0.03 µM, first compound 0.01 µM) 75.4% | viability, T/C [7] 97.9% | viability, T/C [8] 84.2% | viability, T/C [9] 111% | viability, T/C [10] 142% | viability, T/C (second compound 0.0949 µM, first compound 0.00316 µM) 94.6% | viability, T/C (second compound 0.0949 µM, first compound 0.01 µM) 82% | viability, T/C [13] 84.1% | viability, T/C [14] 98.7% | viability, T/C [15] 113% | viability, T/C [16] 146% | viability, T/C (second compound 0.3 µM, first compound 0.00316 µM) 74.5% | viability, T/C (second compound 0.3 µM, first compound 0.01 µM) 89% | viability, T/C [19] 86.8% | viability, T/C [20] 81.3% | viability, T/C [21] 115% | viability, T/C [22] 126% | viability, T/C (second compound 0.949 µM, first compound 0.00316 µM) 85.4% | viability, T/C (second compound 0.949 µM, first compound 0.01 µM) 64.5% | viability, T/C [25] 77.2% | viability, T/C [26] 79.2% | viability, T/C [27] 112% | viability, T/C [28] 161% | viability, T/C (second compound 3 µM, first compound 0.00316 µM) 97.8% | viability, T/C (second compound 3 µM, first compound 0.01 µM) 85.2% | viability, T/C [31] 97.9% | viability, T/C [32] 109% | viability, T/C [33] 158% | viability, T/C [34] 106%
> 1 µM: IC50 (second compound 0.00949 µM) | IC50 (second compound 0.03 µM) | IC50 (second compound 0.0949 µM) | IC50 (second compound 0.3 µM) | IC50 (second compound 0.949 µM) | IC50 (second compound 3 µM)

CCNC(=O)CC1N=C(c2ccc(Cl)cc2)c2cc(OC)ccc2-n2c(C)nnc21 (stereo unspecified) + C=CC(=O)N1CCN(c2nc(OCC3CCCN3C)nc3c2CCN(c2cccc4cccc(C)c24)C3)CC1CC#N
> 10 µM: IC50 (second compound 0.00949 µM) | IC50 (second compound 0.03 µM) | IC50 (second compound 0.0949 µM) | IC50 (second compound 0.3 µM) | IC50 (second compound 0.949 µM) | IC50 (second compound 3 µM)
inactive: viability, T/C [1] 68.5% | viability, T/C [2] 79.5% | viability, T/C [3] 69.5% | viability, T/C [4] 115% | viability, T/C [5] 100% | viability, T/C [6] 90.3% | viability, T/C [7] 82.6% | viability, T/C [8] 76.9% | viability, T/C [9] 79.1% | viability, T/C [10] 108% | viability, T/C [11] 119% | viability, T/C [12] 110% | viability, T/C [13] 73.3% | viability, T/C [14] 63.3% | viability, T/C [15] 78.8% | viability, T/C [16] 115% | viability, T/C [17] 97.8% | viability, T/C [18] 111% | viability, T/C [19] 72.8% | viability, T/C [20] 64.3% | viability, T/C [21] 60.5% | viability, T/C [22] 102% | viability, T/C [23] 91.9% | viability, T/C [24] 104% | viability, T/C [25] 53.3% | viability, T/C [26] 63.1% | viability, T/C [27] 82.7% | viability, T/C [28] 74% | viability, T/C [29] 83.7% | viability, T/C [30] 86.1% | viability, T/C [31] 75.5% | viability, T/C [32] 89.9% | viability, T/C [33] 82.7% | viability, T/C [34] 67.1% | viability, T/C [35] 71.2% | viability, T/C [36] 54.3%
